Data on 20 compounds can be found in patent US20050282840A1, “Methods of modulating neurotrophin-mediated activity” (PainCeptor Pharma Corporation, priority 2004, published 2005).

Structures are written as SMILES. Like-named read-outs stand apart in the source and are kept apart here.

Test [1] addresses T1, p75^NTR receptors (PC12 cells) (Rattus norvegicus, UniProt P07174).
T1 construct: endogenous in cells; host or cells: PC12 cells
T1 sequence (P07174 30-425): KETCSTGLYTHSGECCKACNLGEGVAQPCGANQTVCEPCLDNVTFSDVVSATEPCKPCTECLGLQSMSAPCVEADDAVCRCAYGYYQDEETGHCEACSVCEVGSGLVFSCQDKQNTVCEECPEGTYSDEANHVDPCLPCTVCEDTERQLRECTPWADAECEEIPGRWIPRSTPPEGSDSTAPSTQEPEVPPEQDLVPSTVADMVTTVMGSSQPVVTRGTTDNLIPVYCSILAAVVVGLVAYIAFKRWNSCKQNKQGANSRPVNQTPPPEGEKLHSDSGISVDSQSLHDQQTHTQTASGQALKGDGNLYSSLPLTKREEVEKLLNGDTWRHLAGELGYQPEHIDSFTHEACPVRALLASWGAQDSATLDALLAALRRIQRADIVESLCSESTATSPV
T1 sequence (P23560 129-247 partner): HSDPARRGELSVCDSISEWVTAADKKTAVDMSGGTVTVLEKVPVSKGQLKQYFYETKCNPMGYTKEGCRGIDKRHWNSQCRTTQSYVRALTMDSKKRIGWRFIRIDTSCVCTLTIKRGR
Put plainly: Basic screening assay: binding of 125I-BDNF to PC12 cells. Conditions: read-out: BDNF Activity % Maximal Binding. How it is done: (§1) The compounds were screened for effects on binding of ^125I-BDNF or ^125I-NGF to PC12 cells (p75^NTR receptors), and those that inhibited binding were further tested to determine the EC50 for this inhibition.
(§2) PC12 cells were cultured and prepared for binding assays as described in Example 1.
(§3) Lypophilized Peprotech human recombinant BDNF (Cedarlane Laboratories, Toronto, Canada, cat. # PE 450-02-10) was reconstituted under sterile conditions to 3.5 μM in sterile HKR/1%BSA, and either used immediately or stored in aliquots of 20 μl at −80° C. Immediately prior to use, a 15 nM (30×) solution of ^125I-BDNF or ^125I-NGF was prepared in HKR buffer, and was used at 0.5 nM final concentration.
(§4) Test Compounds were dissolved to 10 mM in DMSO, and those that were not initially soluble were warmed to 40-50° C. and vortexed. Those compounds that were still not in solution were reported as such. Compounds were then stored in this form at −20° C. until use. Immediately before experiments, 100 mM compounds were diluted to 10 mM in DMSO (1:10), followed by a further dilution to 1 mM (1:10) with distilled water, and a further dilution to 500 μM (1:1) with HKR.
(§5) Assays to determine maximum binding (Bmax), non-specific binding (NSB), and binding in the presence of each test compound (e.g., x, y) were performed at least in duplicate. In a total volume of 300 μL, 4×10^6 PC12 cells were incubated, rotating for 2 h at 4° C. with the following:
(§6) At the conclusion of the binding reaction, 100 μL aliquots of the reaction mixtures were carefully layered over 200 μL of a 10% glycerol solution in a 0.4 mL tube, and subjected to centrifugation in a microcentrifuge for 2 minutes at half maximum speed. The cell pellets containing the bound ^125I-BDNF or ^125I-NGF were then measured using a gamma counter. The mean values of the replicates were then calculated to determine the value for maximum binding (Bmax) and nonspecific binding (NSB), and binding in the presence of test compound at 50 μM (Bx). Specific binding (SB) was measured by subtracting the NSB from the Bmax.

In test [2] the test system is p75^NTR receptors (PC12 cells). Put plainly: Basic screening assay: binding of 125I-NGF to PC12 cells. As to conditions: Table 1; test compound 50 μM; 0.5 nM 125I-NGF; PC12 cells; 2 h at 4° C.; specific binding as percent of control. The protocol: as §1, §2
Lyophilized Serotec mouse 2.5S NGF (Cedarlane Laboratories, Toronto, Canada, cat. # PMP 04Z) was reconstituted under sterile conditions to 1 mg/mL (38 μM) in sterile 0.2% acetic acid, and 100 μL or 50 μL aliquots were stored frozen at −80° C.
as §3, §4, §5
as §6, with “Bmax. Specific binding in the presence of the test compound (SBx) was determined by subtracting the NSB from the Bx for each test compound; and each SBx was divided by SB and multiplied by 100 to give the specific binding in the presence of the compound as a percent of control specific binding.” for “Bmax.”

Where [3] appears, read: Table 1, test compound 50 μM, 0.5 nM 125I-BDNF, PC12 cells, 2 h at 4° C., specific binding as percent of control.

Consider `Cc1ccc(N2NC(=O)C(=Cc3ccc(-c4ccc([N+](=O)[O-])cc4Cl)o3)C2=O)cc1C` [Compound 23, 4-[5-(2-Chloro-4-nitrophenyl)furan-2-ylmethylene]-1-(3,4-dimethylphenyl)-pyrazolidine-3,5-dione], for which, in test [1] (setting [3]), the activity at 50 µM is 0 to 10%. For the same compound, the “NGF Activity % Maximal Binding” value in test [2] is on record as “* (50 < *)”.

For the compound `CCOC(=O)CN1C(=O)S/C(=C/c2ccc(-c3ccc(C(=O)O)c(Cl)c3)o2)C1=O` [Compound 24, 2-Chloro-4-[5-(3-ethoxycarbonylmethyl-2,4-dioxo-thiazolidin-5-ylidenemethyl)furan-2-yl]benzoic acid], the activity at 50 µM in test [1] (setting [3]) lay within 0 to 10%. Further, the “NGF Activity % Maximal Binding” value in test [2] is reported as “* (50 < *)”.

Take `Cc1cc(-c2ccc(C=C3C(=O)NC(=S)NC3=O)o2)cc([N+](=O)[O-])c1C` [Compound 25, 5-[5-(3,4-Dimethyl-5-nitrophenyl)furan-2-ylmethylene]-2-thioxo-dihydro-pyrimidine-4,6-dione]: the activity at 50 µM in test [1] is 0 to 10%. For the same compound, the “NGF Activity % Maximal Binding” value in test [2] is “* (50 < *)”.

Regarding `O=C1NC(=O)C(=Cc2ccc(-c3ccc([N+](=O)[O-])cc3)o2)C(=O)N1` [Compound 26, 5-[5-(4-Nitrophenyl)furan-2-ylmethylene]-pyrimidine-2,4,6-trione], the activity at 50 µM in test [1] was in the range of 0 to 10%. The “NGF Activity % Maximal Binding” value in test [2] is on record as “* (50 < *)”.

Regarding `O=C(O)c1ccc(-c2ccc(/C=C3/NC(=O)N(Cc4ccccc4F)C3=O)o2)cc1Cl` [Compound 27, 2-Chloro-4-{5-[1-(2-fluorobenzyl)-2,5-dioxo-imidazolidin-4-ylidenemethyl]furan-2-yl}benzoic acid], the activity at 50 µM in test [1] (setting [3]) lay within 0 to 10%. Besides, the “NGF Activity % Maximal Binding” value in test [2] is “* (50 < *)”.

As to `O=C(O)c1cc(-c2ccc(/C=C3\NC(=O)N(Cc4ccc(F)cc4)C3=O)o2)ccc1Cl` [Compound 28, 2-Chloro-5-{5-[1-(4-fluorobenzyl)-2,5-dioxo-imidazolidin-4-ylidenemethyl]furan-2-yl}benzoic acid], the activity at 50 µM in test [1] (setting [3]) was 10 to 20%. Besides, the “NGF Activity % Maximal Binding” value in test [2] is listed as “* (50 < *)”.

Regarding `COC(=O)C(C)N1C(=O)S/C(=C/c2ccc(-c3cc(C(=O)O)ccc3C)o2)C1=O` (stereo not shown) [Compound 29, 3-{5-[3-(1-Methoxycarbonyl-ethyl)-2,4-dioxo-thiazolidin-5-ylidenemethyl]furan-2-yl}-4-methylbenzoic acid], in test [1] (setting [3]), the activity at 50 µM lay in the range of 10 to 20%. For the same compound, in test [2], the “NGF Activity % Maximal Binding” value is “* (50 < *)”.

For the compound `COc1ccc(-c2ccc(C=C3C(=O)N(C)C(=O)N(C)C3=O)o2)cc1[N+](=O)[O-]` [Compound 31, 5-[5-(4-Methoxy-3-nitrophenyl)furan-2-ylmethylene]-1,3-dimethyl-pyrimidine-2,4,6-trione], in test [1], the activity at 50 µM lay within 10 to 20%. Besides, in test [2], the “NGF Activity % Maximal Binding” value is on record as “* (50 < *)”.

Take `COC(=O)c1ccc(-c2ccc(/C=C3\C(=O)NC(=O)N(Cc4ccccc4)C3=O)o2)cc1` [Compound 32, 4-[5-(1-benzyl-2,4,6-trioxo-tetrahydro-pyrimidin-5-ylidenemethyl)furan-2-yl]benzoic acid methyl ester]: the activity at 50 µM in test [1] was in the range of 10 to 20%. Besides, the “NGF Activity % Maximal Binding” value in test [2] was “* (50 < *)”.

For the compound `O=C1NC(=O)/C(=C\c2ccc(-c3ccc([N+](=O)[O-])cc3Cl)o2)S1` [Compound 33, 5-[5-(2-Chloro-4-nitrophenyl)furan-2-ylmethylene]-thiazolidine-2,4-dione], the activity at 50 µM in test [1] (setting [3]) was 10 to 20%. Moreover, the “NGF Activity % Maximal Binding” value in test [2] is reported as “* (50 < *)”.

`COCCN1C(=O)C(=Cc2ccc(-c3cccc([N+](=O)[O-])c3)o2)SC1=S` [Compound 34, 3-(2-Methoxy-ethyl)-5-[5-(3-nitrophenyl)furan-2-ylmethylene]-2-thioxo-thiazolidin-4-one]: in test [1] (setting [3]), the activity at 50 µM lay in the range of 10 to 20%. In addition, the “NGF Activity % Maximal Binding” value in test [2] was “* (50 < *)”.

Take `O=C(O)c1ccc(-c2ccc(/C=C3/NC(=O)N(c4cccc(Cl)c4)C3=O)o2)cc1Cl` [Compound 36, 2-Chloro-4-{5-[1-(3-chlorophenyl)-2,5-dioxo-imidazolidin-4-ylidenemethyl]furan-2-yl}benzoic acid]: the activity at 50 µM in test [1] (setting [3]) lay within 10 to 20%. In test [2], the “NGF Activity % Maximal Binding” value is listed as “* (50 < *)”.

Turning to `COc1ccc(CN2C(=O)/C(=C\c3ccc(-c4ccc(S(N)(=O)=O)cc4)o3)SC2=S)cc1` [Compound 37, 4-{5-[3-(4-Methoxybenzyl)-4-oxo-2-thioxo-thiazolidin-5-ylidenemethyl]furan-2-yl}benzenesulfonamide], the activity at 50 µM in test [1] (setting [3]) was 20 to 30%. Further, the “NGF Activity % Maximal Binding” value in test [2] is “* (50 < *)”.

With `O=C(O)CN1C(=O)C(=Cc2ccc(-c3ccc([N+](=O)[O-])cc3)o2)SC1=S` [Compound 38, {5-[5-(4-Nitrophenyl)furan-2-ylmethylene]-4-oxo-2-thioxo-thiazolidin-3-yl}-acetic acid], the activity at 50 µM in test [1] (setting [3]) is 20 to 30%. The “NGF Activity % Maximal Binding” value in test [2] is listed as “* (50 < *)”.

Take `CN1C(=O)NC(=O)C(=Cc2ccc(-c3ccc([N+](=O)[O-])cc3)o2)C1=O` [Compound 39, 1-Methyl-5-[5-(4-nitrophenyl)furan-2-ylmethylene]-pyrimidine-2,4,6-trione]: the activity at 50 µM in test [1] lay within 20 to 30%. In addition, the “NGF Activity % Maximal Binding” value in test [2] was “* (50 < *)”.

As to `Cc1cc([N+](=O)[O-])ccc1-c1ccc(C=C2SC(=S)N(CC(=O)O)C2=O)o1` [Compound 40, {5-[5-(2-Methyl-4-nitrophenyl)furan-2-ylmethylene]-4-oxo-2-thioxo-thiazolidin-3-yl}-acetic acid], the activity at 50 µM in test [1] (setting [3]) was in the range of 20 to 30%. For the same compound, the “NGF Activity % Maximal Binding” value in test [2] is “* (50 < *)”.

Turning to `Cc1cc(C(=O)O)ccc1-c1ccc(/C=C2/NC(=O)NC2=O)o1` [Compound 41, 4-[5-(2,5-Dioxo-imidazolidin-4-ylidenemethyl)furan-2-yl]-3-methylbenzoic acid], the activity at 50 µM in test [1] (setting [3]) lay in the range of 20 to 30%. Besides, in test [2], the “NGF Activity % Maximal Binding” value is recorded as “* (50 < *)”.

For the compound `Cc1cccc(N2NC(=O)/C(=C/c3ccc(-c4ccc(Cl)c([N+](=O)[O-])c4)o3)C2=O)c1` [Compound 44, 4-[5-(4-Chloro-3-nitrophenyl)furan-2-ylmethylene]-1-m-tolyl-pyrazolidine-3,5-dione], the activity at 50 µM in test [1] (setting [3]) is 30 to 40%. For the same compound, the “NGF Activity % Maximal Binding” value in test [2] was “* (50 < *)”.

On to `CN1C(=O)/C(=C/c2ccc(-c3ccc(S(N)(=O)=O)cc3)o2)SC1=S` [Compound 45, 4-[5-(3-Methyl-4-oxo-2-thioxo-thiazolidin-5-ylidenemethyl)furan-2-yl]benzenesulfonamide], for which, in test [1] (setting [3]), the activity at 50 µM lay in the range of 30 to 40%. Further, the “NGF Activity % Maximal Binding” value in test [2] was “* (50 < *)”.

For the compound `COC(=O)c1ccc(-c2ccc(/C=C3/NC(=O)N(Cc4ccc(F)cc4)C3=O)o2)c(C)c1` [Compound 46, 4-{5-[1-(4-Fluorobenzyl)-2,5-dioxo-imidazolidin-4-ylidenemethyl]furan-2-yl}-3-methylbenzoic acid methyl ester], the activity at 50 µM in test [1] (setting [3]) lay within 30 to 40%. In test [2], the “NGF Activity % Maximal Binding” value is “* (50 < *)”.
